Results: ChEMBL document CHEMBL1158926, “Norsesterterpenes from the North Adriatic Sponge Ircinia oros” (J Nat Prod, 1990)
Values after ≈ are worked out from the molar mass of the structure shown.

Assay: Toxicity against Artemia salina
Assay type: organism-based
Details: in vivo, read-out: LD50 (the source's name)
`C/C(=C\CCc1coc(Cc2ccoc2)c1)CCCC(C)CC(=O)C(O)C(C)Cl` (centres undefined) showed an LC50 of 8.2 µg/mL (≈ 19.5 µM). For `C/C(=C/CCC(C)CC(=O)C(O)C(C)Cl)CCCc1coc(Cc2ccoc2)c1` (centres undefined), the LC50 was 8.6 µg/mL (≈ 20.4 µM). Work on `CC1=C(O)/C(=C/[C@H](C)CCC/C(C)=C/CCc2coc(Cc3ccoc3)c2)OC1=O` [IRCININ 1] yielded an LC50 of 2.4 µg/mL (≈ 5.85 µM). For `CC1=C(O)/C(=C/[C@H](C)CC/C=C(/C)CCCc2coc(Cc3ccoc3)c2)OC1=O` [IRCININ 2], the LC50 was 2.7 µg/mL (≈ 6.58 µM).
